Drawing on US20140135270A1, “MACROCYCLIC COMPOUNDS FOR INHIBITION OF INHIBITORS OF APOPTOSIS” (Ensemble Therapeutics Corp., priority 2012, published 2014), this text covers IC50 for 16 molecules.

Like-named read-outs stand apart in the source and are kept apart here.

Common to all, as to format: binding
Assay [1] addresses T1, N-His-Tb-BIR3(241-356, XIAP) (Homo sapiens, UniProt P98170).
T1 construct: additions of N-His-Tb-BIR3(241-356, XIAP), fluoresceinated modified SMAC peptide; Tb (meaning not explained; sits between His tag and BIR3) (N)
Nature of the assay: XIAP-BIR3 SMAC Peptide Fluorescence Polarization Assay (FPA). On the procedure: A. XIAP-BIR3 SMAC Peptide Fluorescence Polarization Assay (FPA) Assays were performed in black, flat-bottom, 384-well plates. The final assay volume was 50 μL prepared from additions of N-His-Tb-BIR3(241-356, XIAP), fluoresceinated modified SMAC peptide, and test compounds in assay buffer consisting of 20 mM Sodium Phosphate, 1 mM EDTA, 50 mM NaCl, and 0.05% Pluronic F68. The reaction was incubated at room temperature for 60 minutes and fluorescence polarization of the reaction was detected on the LJL Plate Reader. Inhibition data were calculated from mP values generated by the no protein control reactions for 100% inhibition and vehicle-only reactions for 0% inhibition. The final concentration of reagents in the assay was 130 nM N-His-Tb-BIR3(241-356, XIAP), 1.4 nM fluoresceinated modified SMAC peptide, and 1% DMSO. Dose response curves were generated to determine the concentration required for inhibiting 50% of polarization activity (IC50). Compounds were dissolved at 10 mM in dimethylsulfoxide (DMSO) and evaluated at eleven concentrations. IC50 values were derived by non-linear regression analysis.
In general terms: Fluorescence polarisation rises when a labelled molecule tumbles more slowly, as on binding a larger partner.

Assay [2] concerns the target T2, His-BIR2 (124-240/C202A/C213G) (Homo sapiens, UniProt P98170, C202A/C213G).
T2 construct: additions of His-BIR2 (124-240/C202A/C213G), Biotinylated SMAC peptide
As to the kind of experiment: XIAP-BIR2/SMAC Peptide AlphaScreen Assay. How it is done: C. XIAP-BIR2/SMAC Peptide AlphaScreen Assay
Assays were performed in white, flat-bottom, 384-well ProxiPlates (Perkin Elmer). […]. The reaction was incubated at room temperature for 60 minutes. After 60 minutes, 2.5 μL of Alphascreen detection reagent (Perkin Elmer) was added to the reaction mixture and incubated at room temperature in the dark for 120 minutes. The Alphascreen signal generated by the reaction was detected on the Envision Plate Reader. Inhibition data were calculated from an Alphascreen signal generated by the no protein control reactions for 100% inhibition and vehicle-only reactions for 0% inhibition. […]
Biotinylated SMAC peptide, 4 μg/mL Alphascreen detection reagents, and 0.5% DMSO. Dose response curves were generated to determine the concentration required for inhibiting 50% of the activity (IC50). Compounds were dissolved at 10 mM in dimethylsulfoxide (DMSO) and evaluated at eleven concentrations. IC50 values were derived by non-linear regression analysis.

The target in assay [3] is T3, His-BIR3 (241-356, XIAP) (Homo sapiens, UniProt P98170).
T3 construct: additions of His-BIR3 (241-356, XIAP), fluorescein labeled SMAC peptide
T3 sequence (P98170 241-356): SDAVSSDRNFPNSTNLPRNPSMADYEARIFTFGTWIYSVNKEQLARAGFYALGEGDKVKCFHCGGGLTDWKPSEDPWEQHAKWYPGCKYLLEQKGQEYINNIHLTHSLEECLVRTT
As to the kind of experiment: XIAP-BIR3/SMAC Homogeneous Time Resolved Fluorescence (HTRF) Assay. The following applies: fluorescein labeled SMAC peptide. (In general: In TR-FRET formats the signal depends on donor and acceptor labels being close together.)

Assay [4] has as its target T4, His-BIR2-3 (125-356, C202A/C213G, XIAP) (Homo sapiens, UniProt P98170, C202A/C213G).
T4 construct: additions of His-BIR2-3 (125-356, C202A/C213G, XIAP), fluorescein labeled dimeric SMAC peptide
As to the kind of experiment: XIAP-BIR2-3 Dimeric SMAC Peptide Homogeneous Time Resolved Fluorescence (HTRF) Assay. The following applies: fluorescein labeled dimeric SMAC peptide.

[5] abbreviates: biotinylated SMAC peptide, read-out: BIR2 ALPHA IC50.
[6] abbreviates: read-out: BIR3 FPA IC50, fluorescence polarization, fluoresceinated modified SMAC peptide.
Setting [7] is: fluorescence polarization, fluoresceinated modified SMAC peptide, read-out: BIR3 FPA IC50.
The mark [8] stands for this setting: read-out: BIR2 ALPHA IC50, biotinylated SMAC peptide.

As a reminder, the IC50 is the concentration at which inhibition is half-maximal.

T4 sequence (P98170 125-356 C202A/C213G): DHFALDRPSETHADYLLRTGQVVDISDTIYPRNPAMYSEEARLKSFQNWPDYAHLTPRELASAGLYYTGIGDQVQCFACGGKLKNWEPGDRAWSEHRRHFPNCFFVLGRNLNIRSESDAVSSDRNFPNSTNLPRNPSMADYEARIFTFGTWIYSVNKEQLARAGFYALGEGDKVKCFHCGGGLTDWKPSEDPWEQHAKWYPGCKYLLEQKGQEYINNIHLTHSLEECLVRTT
T2 sequence (P98170 124-240 C202A/C213G): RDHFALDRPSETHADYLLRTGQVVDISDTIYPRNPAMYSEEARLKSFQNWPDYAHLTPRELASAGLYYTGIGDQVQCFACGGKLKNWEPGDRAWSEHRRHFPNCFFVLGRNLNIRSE
T1 sequence (P98170 241-356): as the sequence (P98170 241-356) above

`CN[C@@H](C)C(=O)N[C@H](C(=O)N1C[C@@H]2C[C@H]1C(=O)N[C@@H](Cc1ccc3ccccc3c1)C(=O)N[C@H](C(=O)O)C/C=C/CO[C@H]1C[C@@H](C(=O)N[C@@H](Cc3ccc4ccccc4c3)C(=O)N[C@H](C(=O)O)CC(=O)N2)N(C(=O)[C@@H](NC(=O)[C@H](C)NC)C(C)(C)C)C1)C(C)(C)C` [Example 43]: the IC50 in assay [1] worked out at 74.1 nM; in assay [2] (setting [5]), 147 nM.
With `CNC(C)C(=O)NC(C(=O)N1CC2CC1C(=O)NC(Cc1ccc3ccccc3c1)C(=O)NC(C(=O)O)Cc1ccc(cc1)OCC=CCOC1CC(C(=O)NC(Cc3ccc4ccccc4c3)C(=O)NC(C(=O)O)Cc3ccc(cc3)C(=O)N2)N(C(=O)C(NC(=O)C(C)NC)C(C)(C)C)C1)C(C)(C)C` (stereo not shown) [Example 32], the IC50 in assay [1] (setting [6]) was 36.1 nM; in assay [2] (setting [5]), 16.2 nM.
Take `CNC(C)C(=O)NC(C(=O)N1CC2CC1C(=O)NC(Cc1ccc3ccccc3c1)C(=O)NC(C(=O)O)Cc1ccc(cc1)OCC=CCOC1CC(C(=O)NC(Cc3ccc4ccccc4c3)C(=O)NC(C(=O)O)CCC(=O)N2)N(C(=O)C(NC(=O)C(C)NC)C(C)(C)C)C1)C(C)(C)C` (stereo not shown) [Example 33]: the 50% inhibitory concentration (IC50) in assay [1] (setting [6]) amounted to 31.6 nM; in assay [3] it was 84.7 nM; in assay [2] (setting [5]), 21.6 nM; in assay [4], 9.5 nM.
As to `CN[C@@H](C)C(=O)N[C@H](C(=O)N1C[C@@H]2C[C@H]1C(=O)N[C@@H](Cc1ccc3ccccc3c1)C(=O)N[C@H](C(=O)O)Cc1ccc(cc1)OC/C=C/CO[C@H]1C[C@@H](C(=O)N[C@@H](Cc3ccc4ccccc4c3)C(=O)N[C@H](C(=O)O)CC(=O)N2)N(C(=O)[C@@H](NC(=O)[C@H](C)NC)C(C)(C)C)C1)C(C)(C)C` [Example 41], the IC50 in assay [1] came out at 46.7 nM; in assay [2] (setting [5]), 45.7 nM.
`CNC(C)C(=O)NC(C(=O)N1CC2CC1C(=O)NC(Cc1ccc3ccccc3c1)C(=O)NC(C(=O)O)Cc1ccc(cc1)OCC=CCOC1CC(C(=O)NC(Cc3ccc4ccccc4c3)C(=O)NC(C(=O)O)CCCC(=O)N2)N(C(=O)C(NC(=O)C(C)NC)C(C)(C)C)C1)C(C)(C)C` (stereo not shown) [Example 36]: the IC50 turned out to be 49 nM in assay [1] (setting [6]) and 38.8 nM in assay [2] (setting [5]).
For the molecule `CNC(C)C(=O)NC(C(=O)N1CC2CC1C(=O)NC(Cc1ccc3ccccc3c1)C(=O)NC(C(=O)O)Cc1ccc(cc1)OCCCCOC1CC(C(=O)NC(Cc3ccc4ccccc4c3)C(=O)NC(C(=O)NS(C)(=O)=O)Cc3ccc(cc3)OCc3cn2nn3)N(C(=O)C(NC(=O)C(C)NC)C(C)(C)C)C1)C(C)(C)C` (stereo not shown) [Example 8], the results for the IC50 in assay [1] (setting [7]) and in assay [2] (setting [8]) were 49.6 nM and 190 nM, respectively.
In the case of `CN[C@@H](C)C(=O)N[C@H](C(=O)N1C[C@@H]2C[C@H]1C(=O)N[C@@H](Cc1ccc3ccccc3c1)C(=O)N[C@H](C(=O)O)COC/C=C/CO[C@H]1C[C@@H](C(=O)N[C@@H](Cc3ccc4ccccc4c3)C(=O)N[C@H](C(=O)O)Cc3ccc(cc3)C(=O)N2)N(C(=O)[C@@H](NC(=O)[C@H](C)NC)C(C)(C)C)C1)C(C)(C)C` [Example 39], the values for the half-inhibitory concentration (IC50) in assay [1] and in assay [2] (setting [5]) were 31.3 nM and 41.1 nM, respectively.
With `CN[C@@H](C)C(=O)N[C@H](C(=O)N1C[C@@H]2C[C@H]1C(=O)N[C@@H](Cc1ccc3ccccc3c1)C(=O)N[C@H](C(=O)O)COC/C=C/CO[C@H]1C[C@@H](C(=O)N[C@@H](Cc3ccc4ccccc4c3)C(=O)N[C@H](C(=O)O)CCC(=O)N2)N(C(=O)[C@@H](NC(=O)[C@H](C)NC)C(C)(C)C)C1)C(C)(C)C` [Example 34], the IC50 amounted to 40.1 nM in assay [1] and 33.6 nM in assay [2] (setting [5]).
Turning to `CN[C@@H](C)C(=O)N[C@H](C(=O)N1C[C@@H]2C[C@H]1C(=O)N[C@@H](Cc1ccc3ccccc3c1)C(=O)N[C@H](C(=O)O)C/C=C/CO[C@H]1C[C@@H](C(=O)N[C@@H](Cc3ccc4ccccc4c3)C(=O)N[C@H](C(=O)O)Cc3ccc(cc3)C(=O)N2)N(C(=O)[C@@H](NC(=O)[C@H](C)NC)C(C)(C)C)C1)C(C)(C)C` [Example 40], the IC50 came out at 26.3 nM in assay [1] and 44.2 nM in assay [2] (setting [5]).
Consider `CN[C@@H](C)C(=O)N[C@H](C(=O)N1C[C@@H]2C[C@H]1C(=O)N[C@@H](Cc1ccc3ccccc3c1)C(=O)N[C@H](C(=O)O)C/C=C/CO[C@H]1C[C@@H](C(=O)N[C@@H](Cc3ccc4ccccc4c3)C(=O)N[C@H](C(=O)O)CCC(=O)N2)N(C(=O)[C@@H](NC(=O)[C@H](C)NC)C(C)(C)C)C1)C(C)(C)C` [Example 35], for which the IC50 came to 47.6 nM in assay [1] and 49.1 nM in assay [2] (setting [5]).
For the molecule `CNC(C)C(=O)NC(C(=O)N1CC2CC1C(=O)NC(Cc1ccc3ccccc3c1)C(=O)NC(C(=O)O)Cc1ccc(cc1)OCC=CCOC1CC(C(=O)NC(Cc3ccc4ccccc4c3)C(=O)NC(C(=O)NS(C)(=O)=O)Cc3ccc(cc3)OCc3cn2nn3)N(C(=O)C(NC(=O)C(C)NC)C(C)(C)C)C1)C(C)(C)C` (stereo not shown) [Example 5], the IC50 in assay [1] (setting [7]) stood at 50 nM; in assay [2] (setting [8]), 71.5 nM.
`CN[C@@H](C)C(=O)N[C@H](C(=O)N1C[C@@H]2C[C@H]1C(=O)N[C@@H](Cc1ccc3ccccc3c1)C(=O)N[C@H](C(=O)O)C/C=C/CO[C@H]1C[C@@H](C(=O)N[C@@H](Cc3ccc4ccccc4c3)C(=O)N[C@H](C(=O)O)CCCC(=O)N2)N(C(=O)[C@@H](NC(=O)[C@H](C)NC)C(C)(C)C)C1)C(C)(C)C` [Example 38]: the IC50 in assay [1] is 42.1 nM; in assay [2] (setting [5]) it was 116 nM.
For `CN[C@@H](C)C(=O)N[C@H](C(=O)N1C[C@@H]2C[C@H]1C(=O)N[C@@H](Cc1ccc3ccccc3c1)C(=O)N[C@H](C(=O)O)COC/C=C/CO[C@H]1C[C@@H](C(=O)N[C@@H](Cc3ccc4ccccc4c3)C(=O)N[C@H](C(=O)O)CC(=O)N2)N(C(=O)[C@@H](NC(=O)[C@H](C)NC)C(C)(C)C)C1)C(C)(C)C` [Example 42], in that order: 44 nM and 74.6 nM.
For `CN[C@@H](C)C(=O)N[C@H](C(=O)N1C[C@@H]2C[C@H]1C(=O)N[C@@H](Cc1ccc3ccccc3c1)C(=O)N[C@H](C(=O)O)COC/C=C/CO[C@H]1C[C@@H](C(=O)N[C@@H](Cc3ccc4ccccc4c3)C(=O)N[C@H](C(=O)O)CCCC(=O)N2)N(C(=O)[C@@H](NC(=O)[C@H](C)NC)C(C)(C)C)C1)C(C)(C)C` [Example 37] the same measures were 33 nM and 58.2 nM.
Regarding `CN[C@@H](C)C(=O)N[C@H](C(=O)N[C@H]1C/C=C/CC[C@@H](C(=O)O)NC(=O)[C@H](Cc2ccc3ccccc3c2)NC(=O)[C@@H]2CN(CCNC(=O)CC[C@@H](C(=O)O)NC(=O)[C@H](Cc3ccc4ccccc4c3)NC1=O)CCN2C(=O)[C@@H](NC(=O)[C@H](C)NC)C(C)(C)C)C(C)(C)C` [Example 80], the IC50 amounted to 373 nM in assay [3] and 6.8 nM in assay [4].
In the case of `CN[C@@H](C)C(=O)N[C@H](C(=O)N1C[C@H]2CCCCOc3ccc(cc3)C[C@@H](c3nnn[nH]3)NC(=O)[C@H](Cc3ccc4ccccc4c3)NC(=O)[C@@H]3C[C@@H](CN3C(=O)[C@@H](NC(=O)[C@H](C)NC)C(C)(C)C)n3cc(nn3)COc3ccc(cc3)C[C@@H](C(=O)O)NC(=O)[C@H](Cc3ccc4ccccc4c3)NC(=O)[C@@H]1C2)C(C)(C)C` [Example 90], the IC50 in assay [3] was 1.7 nM; in assay [4] it was 0.5 nM.
